According to US11366103B2, “Multi-well micropatterning by ablation” (Massachusetts Institute of Technology, priority 2006, dated 2022):
Where two headings read alike, the source gives them in different places.

How the values were obtained:
[1] = system: micropatterned co-cultures of primary human hepatocytes and 3T3-J2 fibroblasts
Description: Mitochondrial toxicity was evaluated using the MTT assay. […] All data were normalized to a vehicle-only control. […] Tissues were dosed repeatedly every 48 hours. All data was normalized to mitochondrial activity in untreated cultures (100% activity).
In order to assess the utility of micropatterned co-cultures for toxicity screening, the acute and chronic toxicity of model hepatotoxins was quantified. […] Establishment of liver tissue that is stable over several weeks is crucial for evaluating chronic toxicity due to repeated exposures.
Cultures were incubated with various concentrations of compounds dissolved in culture medium for 24 hours (acute toxicity) or extended time periods (chronic toxicity, 1-9 days). Cell viability was subsequently measured via the MTT (3-(4,5-dimethylthiazol-2-yl)-2,5-diphenyl tetrazolium bromide; Sigma) assay, which involves cleavage of the tetrazolium ring by mitochondrial dehydrogenase enzymes to form a purple precipitate. MTT was added to cells in DMEM without phenol red at a concentration of 0.5 mg/mL. After an incubation time of 1 hour, the purple precipitate was dissolved in a 1:1 solution of DMSO and Isopropanol. The absorbance of the solution was measured at 570 nm (SpectraMax spectrophotometer, Molecular Devices, Sunnyvale, Calif.).

[2] = system: co-cultures of primary rat hepatocytes and 3T3-J2 fibroblasts; conditions: for viability relative to untreated controls: 1 mM
Description: Toxicity of pharmaceuticals due to chronic exposure is clinically relevant. Since hepatocyte culture models utilized in the pharmaceutical industry lose viability and phenotypic functions within a few days, toxicity due to repeated drug exposures over days or weeks cannot be evaluated. […] Co-cultures were incubated with varying doses of toxins dissolved in culture medium over several days. Mitochondrial activity (MTT assay, see methods) was evaluated at different time points to assess viability in co-cultures.
Pure hepatocyte monolayers rapidly lose phenotypic functions and thus represent an ‘unstable’ model of the liver. […] The objective here was to compare toxicity of model Hepatotoxins in pure hepatocyte monolayers and co-cultures. Pure hepatocyte monolayers (Day 2 of culture) or hepatocyte-fibroblast co-cultures (Day 13) prepared from the same rat liver were treated with Hepatotoxins for 24 hours, after which viability was assessed via the MTT assay.
All chemicals were purchased from Sigma. In order to evaluate the acute toxicity of compounds, cultures were incubated with various concentrations of compounds dissolved in culture medium for 24 hours. For chronic studies, culture media with fresh Hepatotoxins was added every 2 days. Cell viability at different time points was subsequently measured via the MTT assay.

[3] = system: pure hepatocyte monolayers; conditions: rat, 24 h; for viability relative to untreated controls: 1 mM
[4] = system: CYP1A
Description: Cultures were treated for 3-4 days before incubation with fluorometric or conventional CYP450 substrates. All data was normalized to vehicle-only controls (fold change of 1). […] Substrate/inhibitor combinations: BFC/ketoconazole (CYP3A4), MFC/sulfaphenazole (CYP2C9), Coumarin/methoxsalen (CYP2A6), and 7-Hydroxycoumarin/Salicylamide (Glucuronidation). […] Data were normalized to vehicle-only controls.
Stock solutions of prototypic CYP450 inducers (Sigma) were made in Dimethylsulfoxide (DMSO), except for Phenobarbital, which was dissolved in water. […] Control cultures were treated with vehicle (DMSO) alone for calculations of fold induction. To enable comparisons across inducers, DMSO levels were kept constant at 0.1% (v/v) for all conditions.

[5] = system: CYP3A; test: Inhibition of BFC dealkylation in rat co-cultures; conditions: BFC in the presence of ketoconazole
[6] = molecular target: T1, CYP2A (Homo sapiens, UniProt P11509); test: Coumarin 7-hydroxylation in micropatterned human co-cultures; type: in vitro ADME
T1 construct: endogenous in cells; host or cells: primary human hepatocytes co-cultured with murine 3T3-J2 fibroblasts
T1 sequence (P11509 1-494): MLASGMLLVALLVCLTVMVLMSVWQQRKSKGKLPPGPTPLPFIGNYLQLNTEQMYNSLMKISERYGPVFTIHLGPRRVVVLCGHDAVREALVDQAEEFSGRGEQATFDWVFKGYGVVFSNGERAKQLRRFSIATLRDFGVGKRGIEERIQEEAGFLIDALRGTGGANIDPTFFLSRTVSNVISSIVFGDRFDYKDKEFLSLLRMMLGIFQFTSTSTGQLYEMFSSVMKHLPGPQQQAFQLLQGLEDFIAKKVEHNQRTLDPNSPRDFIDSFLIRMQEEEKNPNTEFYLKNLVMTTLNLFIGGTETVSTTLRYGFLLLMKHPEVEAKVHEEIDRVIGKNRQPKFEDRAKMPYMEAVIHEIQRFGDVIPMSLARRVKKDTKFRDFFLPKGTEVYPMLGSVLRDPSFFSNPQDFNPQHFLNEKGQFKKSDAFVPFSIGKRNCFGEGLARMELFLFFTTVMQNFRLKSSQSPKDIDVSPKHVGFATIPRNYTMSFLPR
Text: (§1) FIGS. 33A-33C depict a comparison of Phase I- and Phase II-mediated substrate metabolism in human and rat co-cultures. Micropatterned cultures with either primary human or primary rat hepatocytes were created using the stencil-based process. Subsequent addition of 3T3-J2 fibroblasts created co-cultures. […] Data from a single representative day is shown.
(§2) Significant variations in hepatocellular functions (i.e. CYP450 enzymes) across different species have been implicated in the inability of animal models to adequately predict adverse outcomes in clinical trials involving humans. Nonetheless, studies in live animals are required by the FDA since they provide valuable in vivo data in a preclinical setting. Therefore, the selection of an animal species (i.e. rat, mouse, monkey, guinea pig) in which the liver-specific metabolism and toxicity of a particular candidate drug are similar to that seen in humans is crucial for clinical success. In vitro human and animal models that closely resemble in-vivo functionality may find use in such a selection process. […] For instance, BFC was dealkylated in rat co-cultures at a rate (pmoles/min/10^6 cells) that was ˜18 fold greater than the rate seen in human co-cultures.

[7] = system: CYP2A; test: Coumarin 7-hydroxylation in micropatterned rat co-cultures; type: in vitro ADME
Text: as §1, §2
Spent media was stored at −20° C.

[8] = system: CYP450 enzymes; test: CYP450-mediated dealkylation of BFC and MFC in micropatterned rat co-cultures; type: in vitro ADME
Description: Therefore, in order to improve the signal-to-noise ratio, levels of CYP1A was ‘induced’ by pre-incubating co-cultures with 3 μM 3-Methylcholanthrene (3-MC) for 3 days prior to assessment of substrate metabolism. […] ER and MR are fluorimetric substrates specific for CYP1A enzymes. […] Use of non-specific substrates provides for an ‘average’ value of CYP450 activity, and is useful to determine whether CYP450 enzymes are functional in a particular system. In FIG. 22A, co-cultures were able to successfully dealkylate BFC and MFC into 7-HFC. […] CYP450 enzymes are oxido-reductases that are part of the Phase I metabolic pathway in hepatocytes. The phase II family of enzymes, on the other hand, is typically involved in the conjugation of highly polar moieties (i.e. sulfate group, glucuronic acid) to xenobiotics to make them water-soluble for excretion out of the body via bile or through the kidneys. A useful substrate for evaluating conjugation reactions is the fluorescent substrate, 7-Hydroxycoumarin (7-HC), which gets modified to non-fluorescent compounds, 7-HC-Glucuronide and 7-HC-Sulfate. The level of conjugation can then be quantified by using bacterial-derived β-glucuronidase and aryl-sulfatase enzymes to ‘deconjugate’ the Phase II products and recover 7-HC fluorescence. In our micropatterned rat co-cultures, we observed time-dependent conjugation of 7-HC by Phase-II enzymes (FIG. 22B). […]

[9] = molecular target: T2, CYP2A6 (Homo sapiens, UniProt P11509)
T2 sequence (P11509 1-494): T1 sequence (P11509 1-494)

[10] = system: CYP1A2; test: Dose and time-dependent CYP1A2 induction in micropatterned co-cultures; conditions: incubation for 1 or 3 days

Cc1c(C)c2c(c(C)c1O)CCC(C)(COc1ccc(CC3SC(=O)NC3=O)cc1)O2 (centres unmarked) [troglitazone]
chronic toxicity [1]: dose and time-dependent toxicity | relative toxicity in pure monolayers versus co-cultures [2]: more toxic to co-cultures as compared to pure monolayers | reduction of viability ([2]; rat, 24 h, 170 μM): ~44% | concentration giving ~44% reduction of viability [3]: 227 µM

COc1ccc2[nH]c([S+]([O-])Cc3ncc(C)c(OC)c3C)nc2c1 (centres unmarked) [Omeprazole]
CYP1A induction, effectiveness in human over rat models [4]: 8 fold

CC(=O)N1CCN(c2ccc(OCC3COC(Cn4ccnc4)(c4ccc(Cl)cc4Cl)O3)cc2)CC1 (centres unmarked) [ketoconazole]
inhibition of BFC dealkylation [5]: ~33%

O=c1ccc2ccccc2o1 [coumarin]
rate of coumarin hydroxylation [6]: greater than 6 pmol/min/10^6 cells | coumarin hydroxylation [7]: unable to hydroxylate coumarin

CN(C)CCN(Cc1cccs1)c1ccccn1 [methapyrilene]
relative toxicity in pure monolayers versus co-cultures [2]: more toxic to pure monolayers as compared to co-cultures | TC50 ([2]; rat, 24 h): 1400 to 1600 µM | viability relative to untreated controls ([2]; rat, 24 h): greater than 80% | viability relative to untreated controls [3]: less than 6%

O=c1cc(C(F)(F)F)c2ccc(OCc3ccccc3)cc2o1 [BFC]
rate of BFC metabolism relative to rate of MFC metabolism ([8]; rat co-cultures, day 14): ~12 fold | rate of BFC dealkylation in rat relative to human co-cultures ([8]; rat, human): ~18 fold

COc1ccc(CN(CCN(C)C)c2ccccn2)cc1 [pyrilamine]
relative toxicity in pure monolayers versus co-cultures [2]: more toxic to pure monolayers as compared to co-cultures | TC50 ([2]; rat, 24 h): 1000 to 1200 µM | viability relative to untreated controls ([2]; rat, 24 h): greater than 80% | TC50 ([2]; rat, 7 days): ~200 µM | viability relative to untreated controls [3]: less than 6%

COc1c2occc2cc2ccc(=O)oc12 [Methoxsalen]
inhibition of CYP2A6 activity [9]: dose-dependent inhibition

O=c1cc(-c2ccccc2)oc2ccc3ccccc3c12 [β-Naphthoflavone]
induction of CYP1A2 activity [10]: induced CYP1A2 activity in a dose and time-dependent manner

[Cd] [cadmium]
shape of dose-dependent acute toxicity profile ([1]; 24 hrs exposure, MTT): relatively linear toxic profile | TC50 relative to other compounds ([1]; concentration producing 50% reduction in mitochondrial activity (MTT) after 24 hours exposure): three orders-of-magnitude lower than the TC50 values for aspirin and caffeine
